{"source": "ChEMBL document CHEMBL4396924", "about": "“Synthesis and biological evaluation of cis-restrained carbocyclic combretastatin A-4 analogs: Influence of the ring size and saturation on cytotoxic properties” (Bioorg Med Chem, 2019)", "key": {"CCRF-CEM [1]": {"tested_on": "CCRF-CEM", "test": "Cytotoxicity against human CCRF-CEM cells assessed as reduction in cell viability incubated for 72 hrs by MTS assay", "format": "functional, cell-based"}, "CEM-DNR": {"tested_on": "CEM-DNR", "test": "Cytotoxicity against human CEM/DNR cells assessed as reduction in cell viability incubated for 72 hrs by MTS assay", "format": "functional, cell-based"}, "K562": {"tested_on": "K562", "test": "Cytotoxicity against human K562 cells assessed as reduction in cell viability incubated for 72 hrs by MTS assay", "format": "functional, cell-based", "conditions": "K562, 72 h"}, "[2]": {"test": "Cytotoxicity against human K562-TAX cells assessed as reduction in cell viability incubated for 72 hrs by MTS assay", "format": "functional, cell-based"}, "HCT-116 [3]": {"tested_on": "HCT-116", "test": "Cytotoxicity against human HCT116 cells assessed as reduction in cell viability incubated for 72 hrs by MTS assay", "format": "functional, cell-based", "conditions": "HCT-116, 72 h"}, "HCT-116 [4]": {"tested_on": "HCT-116", "test": "Cytotoxicity against p53 deficient human HCT116 cells assessed as reduction in cell viability incubated for 72 hrs by MTS assay", "format": "functional, cell-based", "conditions": "HCT-116, 72 h"}, "U2OS": {"tested_on": "U2OS", "test": "Cytotoxicity against human U2OS cells assessed as reduction in cell viability incubated for 72 hrs by MTS assay", "format": "functional, cell-based"}, "A549": {"tested_on": "A549", "test": "Cytotoxicity against human A549 cells assessed as reduction in cell viability incubated for 72 hrs by MTS assay", "format": "functional, cell-based", "conditions": "A549, 72 h"}, "HUVEC": {"tested_on": "HUVEC", "test": "Cytotoxicity against HUVEC assessed as reduction in cell viability incubated for 72 hrs by MTS assay", "format": "cell-based", "conditions": "Homo sapiens"}, "BJ": {"tested_on": "BJ", "test": "Cytotoxicity against human BJ cells assessed as reduction in cell viability incubated for 72 hrs by MTS assay", "format": "cell-based"}, "[5]": {"test": "Cytotoxicity against human […] cells assessed as reduction in cell viability incubated for 72 hrs by MTS assay", "format": "cell-based"}, "[6]": {"test": "Therapeutic index, ratio of IC50 for human BJ cells to IC50 for human CCRF-CEM cells", "format": "toxicity", "conditions": "BJ cells versus CCRF-CEM cells, read-out: Ratio IC50"}, "[7]": {"test": "Therapeutic index, ratio of IC50 for HUVEC to IC50 for human HCT116 cells", "format": "toxicity", "conditions": "HUVEC versus HCT116 cells, read-out: Ratio IC50"}, "[8]": {"test": "Therapeutic index, ratio of IC50 for human […] cells to IC50 for human CCRF-CEM cells", "format": "toxicity", "conditions": "MCR5 cells versus CCRF-CEM cells, read-out: Ratio IC50"}, "CCRF-CEM [9]": {"tested_on": "CCRF-CEM", "test": "Induction of apoptosis in human CCRF-CEM cells assessed as accumulation at subG1 phase at antiproliferative IC50 incubated for 24 hrs by PI staining based flow cytometric analysis (reference value: 3.71%)", "format": "functional"}, "CCRF-CEM [10]": {"tested_on": "CCRF-CEM", "test": "Induction of apoptosis in human CCRF-CEM cells assessed as accumulation at subG1 phase at 5 times antiproliferative IC50 incubated for 24 hrs by PI staining based flow cytometric analysis (reference value: 3.71%)", "format": "functional"}, "CCRF-CEM [11]": {"tested_on": "CCRF-CEM", "test": "Induction of cell cycle arrest in human CCRF-CEM cells assessed as accumulation at G0/G1 phase at antiproliferative IC50 incubated for 24 hrs by PI staining based flow cytometric analysis (reference value: 40.89%)", "format": "functional"}, "CCRF-CEM [12]": {"tested_on": "CCRF-CEM", "test": "Induction of cell cycle arrest in human CCRF-CEM cells assessed as accumulation at G0/G1 phase at 5 times antiproliferative IC50 incubated for 24 hrs by PI staining based flow cytometric analysis (reference value: 40.89%)", "format": "functional"}, "CCRF-CEM [13]": {"tested_on": "CCRF-CEM", "test": "Induction of cell cycle arrest in human CCRF-CEM cells assessed as accumulation at S phase at antiproliferative IC50 incubated for 24 hrs by PI staining based flow cytometric analysis (reference value: 46%)", "format": "functional"}, "CCRF-CEM [14]": {"tested_on": "CCRF-CEM", "test": "Induction of cell cycle arrest in human CCRF-CEM cells assessed as accumulation at S phase at 5 times antiproliferative IC50 incubated for 24 hrs by PI staining based flow cytometric analysis (reference value: 46%)", "format": "functional"}, "CCRF-CEM [15]": {"tested_on": "CCRF-CEM", "test": "Induction of cell cycle arrest in human CCRF-CEM cells assessed as accumulation at G2/M phase at antiproliferative IC50 incubated for 24 hrs by PI staining based flow cytometric analysis (reference value: 12.12%)", "format": "functional"}, "CCRF-CEM [16]": {"tested_on": "CCRF-CEM", "test": "Induction of cell cycle arrest in human CCRF-CEM cells assessed as accumulation at G2/M phase at 5 times antiproliferative IC50 incubated for 24 hrs by PI staining based flow cytometric analysis (reference value: 12.12%)", "format": "functional"}, "CCRF-CEM [17]": {"tested_on": "CCRF-CEM", "test": "Induction of mitotic block in human CCRF-CEM cells assessed as histone H3 Ser10 phosphorylation level at antiproliferative IC50 incubated for 48 hrs by flow cytometric analysis (reference value: 0.97%)", "format": "functional"}, "CCRF-CEM [18]": {"tested_on": "CCRF-CEM", "test": "Induction of mitotic block in human CCRF-CEM cells assessed as histone H3 Ser10 phosphorylation level at 5 times antiproliferative IC50 incubated for 48 hrs by PI staining based flow cytometric analysis (reference value: 0.97%)", "format": "functional"}, "CCRF-CEM [19]": {"tested_on": "CCRF-CEM", "test": "Effect on DNA synthesis in human CCRF-CEM cells assessed as DNA synthesis level at IC50 incubated for 24 hrs by propidium iodide-staining based BrdU incorporation assay (reference value: 52.13%)", "format": "functional"}, "CCRF-CEM [20]": {"tested_on": "CCRF-CEM", "test": "Effect on DNA synthesis in human CCRF-CEM cells assessed as DNA synthesis level at 5 times IC50 incubated for 24 hrs by propidium iodide staining-based BrdU incorporation assay (reference value: 52.13%)", "format": "functional"}, "CCRF-CEM [21]": {"tested_on": "CCRF-CEM", "test": "Effect on RNA synthesis in human CCRF-CEM cells assessed as RNA synthesis level at IC50 incubated for 24 hrs by propidium iodide staining-based […] incorporation assay (reference value: 47.37%)", "format": "functional"}, "CCRF-CEM [22]": {"tested_on": "CCRF-CEM", "test": "Effect on RNA synthesis in human CCRF-CEM cells assessed as RNA synthesis level at 5 times IC50 incubated for 24 hrs by propidium iodide staining-based […] incorporation assay (reference value: 47.37%)", "format": "functional"}, "Tubulin (Sus scrofa)": {"biological_target": "Tubulin (Sus scrofa) (UniProt P02554+P02550)", "sequence (P02550 whole entry, looked up)": "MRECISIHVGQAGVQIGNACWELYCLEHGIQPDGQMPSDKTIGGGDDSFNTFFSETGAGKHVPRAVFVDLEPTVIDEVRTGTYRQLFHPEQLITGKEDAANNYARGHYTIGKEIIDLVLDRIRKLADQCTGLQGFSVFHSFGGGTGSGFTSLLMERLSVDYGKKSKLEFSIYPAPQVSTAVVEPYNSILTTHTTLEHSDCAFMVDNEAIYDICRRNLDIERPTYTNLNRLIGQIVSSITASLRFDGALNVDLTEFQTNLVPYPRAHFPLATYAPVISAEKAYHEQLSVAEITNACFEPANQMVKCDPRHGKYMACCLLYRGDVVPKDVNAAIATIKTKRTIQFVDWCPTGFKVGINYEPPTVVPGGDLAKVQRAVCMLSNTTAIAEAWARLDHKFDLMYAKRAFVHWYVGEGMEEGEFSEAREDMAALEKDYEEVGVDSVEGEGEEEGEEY", "sequence (P02554 whole entry, looked up)": "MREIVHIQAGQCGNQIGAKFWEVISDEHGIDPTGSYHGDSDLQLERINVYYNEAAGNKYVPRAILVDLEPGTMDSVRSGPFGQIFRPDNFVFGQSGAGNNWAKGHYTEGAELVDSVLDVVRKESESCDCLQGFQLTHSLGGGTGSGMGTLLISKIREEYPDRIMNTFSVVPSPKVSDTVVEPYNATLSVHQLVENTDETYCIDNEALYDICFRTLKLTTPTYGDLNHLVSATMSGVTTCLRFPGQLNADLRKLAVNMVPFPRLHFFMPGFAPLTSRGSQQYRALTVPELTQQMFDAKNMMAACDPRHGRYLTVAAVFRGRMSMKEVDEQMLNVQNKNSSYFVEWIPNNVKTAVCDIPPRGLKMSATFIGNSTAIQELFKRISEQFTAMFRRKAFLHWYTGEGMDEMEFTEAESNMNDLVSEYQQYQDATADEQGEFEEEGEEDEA", "test": "Inhibition of porcine brain tubulin polymerization at 10 umol measured every 60 secs by turbidometric assay"}}, "note": "Active and inactive are the calls of the source. The rule behind the calls is not given here.", "data": [{"compound": "COc1ccc(C2CC2c2cc(OC)c(OC)c(OC)c2)cc1O", "note": "(racemic)", "values": [{"measurement": "IC50", "setting": "CCRF-CEM [1]", "value": 693, "unit": "nM"}, {"measurement": "IC50", "setting": "CEM-DNR", "value": 223, "unit": "nM"}, {"measurement": "IC50", "setting": "K562", "value": 631, "unit": "nM"}, {"measurement": "IC50", "setting": "[2]", "value": 53.5, "unit": "nM"}, {"measurement": "IC50", "setting": "HCT-116 [3]", "value": 47.2, "unit": "nM"}, {"measurement": "IC50", "setting": "HCT-116 [4]", "value": 50.2, "unit": "nM"}, {"measurement": "IC50", "setting": "U2OS", "value": 57.2, "unit": "nM"}, {"measurement": "IC50", "setting": "A549", "value": 693, "unit": "nM"}, {"measurement": "IC50", "setting": "HUVEC", "value": 130, "unit": "nM"}, {"measurement": "IC50", "setting": "BJ", "value": 286, "unit": "nM"}, {"measurement": "IC50", "setting": "[5]", "value": 204, "unit": "nM"}, {"measurement": "selectivity ratio", "setting": "[6]", "value": 0.413}, {"measurement": "selectivity ratio", "setting": "[7]", "value": 2.75}, {"measurement": "selectivity ratio", "setting": "[8]", "value": 0.294}, {"measurement": "Activity", "setting": "CCRF-CEM [9]", "value": 33.52, "unit": "%"}, {"measurement": "Activity", "setting": "CCRF-CEM [10]", "value": 34.21, "unit": "%"}, {"measurement": "Activity", "setting": "CCRF-CEM [11]", "value": 1.38, "unit": "%"}, {"measurement": "Activity", "setting": "CCRF-CEM [12]", "value": 1.09, "unit": "%"}, {"measurement": "Activity", "setting": "CCRF-CEM [13]", "value": 37.89, "unit": "%"}, {"measurement": "Activity", "setting": "CCRF-CEM [14]", "value": 41.49, "unit": "%"}, {"measurement": "Activity", "setting": "CCRF-CEM [15]", "value": 60.73, "unit": "%"}, {"measurement": "Activity", "setting": "CCRF-CEM [16]", "value": 57.43, "unit": "%"}, {"measurement": "Activity", "setting": "CCRF-CEM [17]", "value": 43.35, "unit": "%"}, {"measurement": "Activity", "setting": "CCRF-CEM [18]", "value": 46.69, "unit": "%"}, {"measurement": "Activity", "setting": "CCRF-CEM [19]", "value": 25.19, "unit": "%"}, {"measurement": "Activity", "setting": "CCRF-CEM [20]", "value": 24.89, "unit": "%"}, {"measurement": "Activity", "setting": "CCRF-CEM [21]", "value": 50.82, "unit": "%"}, {"measurement": "Activity", "setting": "CCRF-CEM [22]", "value": 51.4, "unit": "%"}, {"measurement": "inhibition", "setting": "Tubulin (Sus scrofa)", "value": "Active"}]}, {"compound": "COc1ccc(C2CCC2c2cc(OC)c(OC)c(OC)c2)cc1O", "note": "(racemic)", "values": [{"measurement": "IC50", "setting": "CCRF-CEM [1]", "value": 3.17, "unit": "nM"}, {"measurement": "IC50", "setting": "CEM-DNR", "value": 1530, "unit": "nM"}, {"measurement": "IC50", "setting": "K562", "value": 2.67, "unit": "nM"}, {"measurement": "IC50", "setting": "[2]", "value": 430, "unit": "nM"}, {"measurement": "IC50", "setting": "HCT-116 [3]", "value": 477, "unit": "nM"}, {"measurement": "IC50", "setting": "HCT-116 [4]", "value": 535, "unit": "nM"}, {"measurement": "IC50", "setting": "U2OS", "value": 415, "unit": "nM"}, {"measurement": "IC50", "setting": "A549", "value": 3.17, "unit": "nM"}, {"measurement": "IC50", "setting": "HUVEC", "value": 1600, "unit": "nM"}, {"measurement": "IC50", "setting": "BJ", "value": 137, "unit": "nM"}, {"measurement": "IC50", "setting": "[5]", "value": 1030, "unit": "nM"}, {"measurement": "selectivity ratio", "setting": "[6]", "value": 43.2}, {"measurement": "selectivity ratio", "setting": "[7]", "value": 3.35}, {"measurement": "selectivity ratio", "setting": "[8]", "value": 324}, {"measurement": "Activity", "setting": "CCRF-CEM [9]", "value": 4.74, "unit": "%"}, {"measurement": "Activity", "setting": "CCRF-CEM [10]", "value": 6.8, "unit": "%"}, {"measurement": "Activity", "setting": "CCRF-CEM [11]", "value": 41.87, "unit": "%"}, {"measurement": "Activity", "setting": "CCRF-CEM [12]", "value": 40.88, "unit": "%"}, {"measurement": "Activity", "setting": "CCRF-CEM [13]", "value": 44.36, "unit": "%"}, {"measurement": "Activity", "setting": "CCRF-CEM [14]", "value": 44.29, "unit": "%"}, {"measurement": "Activity", "setting": "CCRF-CEM [15]", "value": 13.77, "unit": "%"}, {"measurement": "Activity", "setting": "CCRF-CEM [16]", "value": 14.83, "unit": "%"}, {"measurement": "Activity", "setting": "CCRF-CEM [17]", "value": 1.14, "unit": "%"}, {"measurement": "Activity", "setting": "CCRF-CEM [18]", "value": 1.52, "unit": "%"}, {"measurement": "Activity", "setting": "CCRF-CEM [19]", "value": 57.17, "unit": "%"}, {"measurement": "Activity", "setting": "CCRF-CEM [20]", "value": 55.81, "unit": "%"}, {"measurement": "Activity", "setting": "CCRF-CEM [21]", "value": 37.22, "unit": "%"}, {"measurement": "Activity", "setting": "CCRF-CEM [22]", "value": 23.94, "unit": "%"}, {"measurement": "inhibition", "setting": "Tubulin (Sus scrofa)", "value": "Active"}]}]}
